# Measured values published in patent publication US12139443B2, “Concentrated liquid compositions of urease inhibitors for nitrogen sources” (priority 2017, dated 2024).
# Values joined by “and” are separate entries in the source; they are usually repeats but may differ in a detail not shown here. Equal values may be shown once. Read-outs that look alike come from different tables or passages of the source.
# Legend:
# [1] = Thermal Stability of NBPT (oven exposure, weight loss and HPLC); type: physicochemical; conditions: for % NBPT present by LC/UV % w/w: single determination
# Method: One of the advantages of this invention is the application, at moderate temperatures, of thermally sensitive urease inhibitor onto the surfaces of urea. Moderate temperatures are defined as a range of about 20-70° C. Testing procedures were established to exactly weigh samples of approximately 1 gram of NBPT in an aluminum pan and expose them to different temperatures in an oven over varying amounts of time. The initial weight of NBPT in the pan was compared to the final weight of sample in the pan. The % NBPT was then determined by HPLC of the residual from the final weight pan by the following procedure:
# 1. Crush a portion of sample (˜5 g) using mortar and pestle.
# 2. Weigh about a 100 mg sample, in duplicate, and add to separate 10 mL volumetric flasks.
# 3. Bring to volume of 10 ml volumetric flask with 50:50 ACN(Acetonitrile):H2O.
# 5. Transfer a portion through a Nylon 0.45 μm syringe filter into an HPLC vial.
# 6. Inject on LC/UV (15-μg/mL calibration standard).
# [2] = Time to dissolution of nitrification inhibitor coated with urease formulation; type: physicochemical; conditions: UAN 30
# Excerpt: • 1. In a 4 oz. glass jar add 97 grams of either Deionized (DI) Water or UAN 30. • 2. Add a ¾ inch magnetic stir bar and place on a Corning/Model PC-420 Heater/Stirrer and set stirring speed at #7. • 3. Charge 3 grams of a nitrification inhibitor coated or uncoated and start stop watch. • 4. Visually determine the point at which all particles of the nitrification inhibitor have dissolved and record this time as time to dissolution.
# [3] = test system: nitrification of urea fertilizer; assay: University of Arkansas soil incubation trial, urea coated with N Bound; conditions: Urea without inhibitor
# Method: To determine what minimum effective levels of DCD are required to meet acceptable levels of nitrification inhibition and to maximize performance versus inhibitor level, studies were performed at Auburn University, South Dakota State University and University of Arkansas. These studies were performed by coating urea with a liquid nitrification inhibitor product, trade name N Bound, which contained approximately 28% DCD. The application rates of N Bound on urea (Units are in quarts of N Bound/ton of urea) was varied to measure application level versus the conversion of urea to nitrate measured as mg NO3 extracted from the applied soil.
# A trial conducted at University of Arkansas was designed to measure and compare the nitrate concentrations from the microbial activity on untreated urea and ureas coated with N Bound that had been applied to classified as a Calhoun silt loam (pH=7.4) at varying rates. The objective was to determine the minimum inhibitor application rate to achieve optimize nitrification inhibition.
# [4] = Crush strength of coated urea granules; type: physicochemical; conditions: New Leader tester scale 1-10 (1 very poor), average of 10 runs
# Excerpt: Crush strength is the minimum pressure required to crush a granule of urea. Crush strength is of concern during the application of urea and is a measure of the urea's expected broadcast distance. Crush strength is related to the maximum rotations per minute (rpm) for the spinner portion of the urea spreader. The higher the rpms of the spinner, the more distance the urea can be broadcasted. High rpms require high crush strength urea granules in order for the granules not to be pulverized to dust by the broadcast process.
# In order for the coated granules of urea to be tested, they were first sifted through a series of screens to ensure that the urea granules to be tested were of similar particle size as the urea particle size has an impact on crush resistance. A mesh size of 320-400 was chosen as the urea particle size. A New Leader crushing strength tester was used utilizing a scale from 1-10 wherein a reading of 1 is rated very poor crush strength. The results in Table 14 are for coated urea stored at 25° C. and at 50° C. Also included in Table 14 is the weight percentage of DMSO of the composition of the coated urea.
# However, it should be understood that a different method of applying example 86 to the surfaces of the urea granules might result in better coverage (e.g., atomization onto the granules). […]
# Method for urease enzyme: The treated urea was prepared as follows:
# • 1. Charging weight of urea as directed by Table 8 to a container. • 2. The urea was slowly agitated with overhead stirrer with U shaped agitator blade. • 3. The example was slowly dripped on the urea while mixing in the amount as directed by Table 8 (rate=3 quarts/ton of urea). • 4. […] The coated urea was placed in a jar and sealed.
# • 1. In a 6″×9″ rectangular Tupperware sealable container with holes drilled on each end and sealed with tape charge 400 grams of West Texas Sandy Loam Soil and 100 grams of distilled water, mix thoroughly to a consistency of thick “mud” (% moisture should be between 30-40%). • 2. Calculate the surface area to be treated. • a. 6″×9.5″=sq in/1 44 sq in/sq ft=0.395 sq ft • b. 0.395 sq ft/43,560 sq ft/acre=0.0000091 acres • 3. Calculate amount of urea and treated urea to charge to the containers of soil • a. Application Rate: 400 pounds urea per acre • b. 400 lbs/acre/43560 sq ft/acre=0.009 lbs/sq ft×0.395 sq ft/container=0.0036 lbs/container×454 g/lb=1.65 grams urea per container. • c. Add 1.65 grams of urea and various treated ureas to each container • 4. Ammonia Volatilization Screening Test • a. Evenly distribute over the soil in each container 1.65 grams of example to be tested, • b. Seal container, • c. Take readings of ammonia volatilization of each container over a selected period of time as directed in Table 9, • i. Drager tube measurement • (1) Use Drager pump with 0-600 ppm (or range TBD) ammonia drager tube. • (2) At specified times, quickly remove the tape on one end of container and insert the drager tube/pump. • (3) Fully squeeze pump 20 times allowing enough time for pump to fully inflate between each squeeze and then remove the tube from the container and read. • (4) Open container lid and vent the remaining ammonia gas out of the container and reseal. • (5) Repeat procedure at next designated time.
smiles,measurement,setting,value
"CCCCNP(N)(N)=S [NBPT, N-(n-butyl)thiophosphoric triamide]",% NBPT present by LC/UV Average,[1]; 50° C./3600 sec,99.38%
same,% Weight Loss Average,[1]; 50° C./3600 sec,0.0%
same,% NBPT present by LC/UV % w/w,[1]; 50° C./3600 sec,99.17% and 99.58%
same,% NBPT present by LC/UV Average,[1]; 70° C./900 sec,99.38%
same,% Weight Loss Average,[1]; 70° C./900 sec,0.26%
same,% NBPT present by LC/UV % w/w,[1]; 70° C./900 sec,99.53% and 99.23%
same,% NBPT present by LC/UV Average,[1]; 100° C./300 sec,22.92%
same,% Weight Loss Average,[1]; 100° C./300 sec,10.36%
same,% NBPT present by LC/UV % w/w,[1]; 100° C./300 sec,23.59% and 22.25%
same,% NBPT present by LC/UV Average,[1]; 120° C./180 sec,4.67%
same,% Weight Loss Average,[1]; 120° C./180 sec,13.55%
same,% NBPT present by LC/UV % w/w,[1]; 120° C./180 sec,4.79% and 4.54%
same,% NBPT present by LC/UV Average,[1]; 140° C./90 sec,3.84%
same,% Weight Loss Average,[1]; 140° C./90 sec,13.42%
same,% NBPT present by LC/UV % w/w,[1]; 140° C./90 sec,3.68% and 3.99%
same,degradation (HPLC),[1]; 15 minutes at 70° C.,no degradation
same,% NBPT present by LC/UV Average,"[1]; NBPT std, not heated",99.25%
same,% NBPT present by LC/UV % w/w,"[1]; NBPT std, not heated",99.35% and 99.16%
same,thermal stability (HPLC),[1]; temperatures >100° C.,poor thermal stability
"N#CN=C(N)N [DCD untreated, Dicyandiamide]",Initial Appearance,[2]; 3%,clear
same,Time to Dissolution,[2]; 3 grams in 97 grams (3%),1740 s
NC(N)=O [Urea],Nitrate-N Concentration,"[3]; Day 1, Calhoun silt loam",113.4 mg NO3—N/kg soil
same,Nitrate-N Concentration,[3]; Day 3,98.6 mg NO3—N/kg soil
same,Nitrate-N Concentration,[3]; Day 7,151.6 mg NO3—N/kg soil
same,Nitrate-N Concentration,[3]; Day 14,202.8 mg NO3—N/kg soil
same,Nitrate-N Concentration,[3]; Day 21,221.2 mg NO3—N/kg soil
same,Nitrate-N Concentration,[3]; Day 28,262.3 mg NO3—N/kg soil
same,Nitrate-N Concentration,[3]; Day 35,255.3 mg NO3—N/kg soil
same,Crush Strength stored 24 hrs. @ 25 C.,[4],5.4
same,Crush Strength stored 24 hrs. @ 50 C.,[4],6.75
same,Ammonia Reading,"urease enzyme; 72 hours, 1.65 grams treated urea (3 quarts/ton) on West Texas Sandy Loam Soil",220 ppm
same,Ammonia Reading,urease enzyme; 144 hours,475 ppm
same,Ammonia Reading,urease enzyme; 264 hours,460 ppm
